The subject of one data set is human Caco-2/TC7 cells. The settings on record: after six and 24 h; cited from earlier work.
The subject of the next data set is human gut microbiota. To be noted: cited from earlier work; for Share hydrolyzed after incubation with human gut microbiota: four hours; for Dose converted to unidentified metabolites / not recovered as identified metabolites / Dose detected as the aglycone (ZEN, α-ZEL or β-ZEL): incubation with human gut microbiota.
In data set [1] the test system is human intestinal bacteria. Further details: method as in PMID 23347206. To be noted: human in vitro model; cited from earlier work.
The next data set has as its system uterus weight. Further details: method as in PMID 1827972. To be noted: intragastric, rats n = 6 per treatment; cited from earlier work.
Data set [2] is described as follows: Excretion and biological recovery of ZEN and its metabolites in urine and feces of piglets after a single oral bolus (HPLC-MS/MS). Type of data set: in vivo, pigs. The settings on record: for Hydrolysis in the gastrointestinal tract of pigs: oral application, conclusion from excreta analysis. The protocol: Four castrated male weaning piglets (sow: Landrace × Large White, boar: Pietrain; 33–35 days old, 7.9 ± 0.6 kg) were obtained from a local producer in Lower Austria. Animals were housed separately in metabolic cages in total for 22 days and were allowed to acclimatize for five days before the start of the experiment. They had free access to water and feed was provided twice per day (semi ad libitum). The diet was analyzed for its concentration of ZEN and naturally occurring metabolites thereof.
(§1) Using a repeated measures design, the piglets (n = 4) received water (negative control), ZEN (10 µg/kg b.w.; positive control) and the equimolar dose of ZEN-14-S (12.5 µg/kg b.w.), ZEN-16-Glc (15.1 µg/kg b.w.) and ZEN-14-Glc (15.1 µg/kg b.w.) per gavage (orogastric application) on day 1, 3, 7, 11, and 15 of the experiment, respectively. From the stock solutions containing between 991 (ZEN-14-S) and 1274 (ZEN-14-Glc) µg/mL of the analytes the adequate volumes for the animal experiment were removed and diluted with water for the oral application to obtain 5 µg/mL ZEN and the equimolar concentration of the other analytes in the aqueous stock solutions. Using polyvinyl chloride catheters (diameter 4.7 mm, Ch 14, mpö pfm GesmbH (Klagenfurt, Austria), length was adapted to the size of the esophagus of the piglets), volumes between 16 and 30 mL of the aqueous stock solutions were orally administered to the piglets, considering the piglets’ weight. After the toxin application, 10 mL of water was used to flush the catheter. Urine and feces of each of the piglets were quantitatively collected for the periods 0–24 h and 24–48 h after dosing. Urine was measured volumetrically on site and all excreta samples were stored at −20 °C until lyophilization (feces) or sample preparation and analysis (urine). The general condition of the animals was observed daily during the experiment.
Urine samples were diluted 1:5000 with water and the creatinine content was determined by LC-MS/MS as described earlier. For determination of ZEN, its plant and fungal metabolites and their metabolites in pigs, urine samples were diluted to 0.2 mM creatinine with water and centrifuged prior to HPLC-MS/MS analysis.
Five-hundred milligram aliquots of freeze-dried and thoroughly homogenized feces samples were extracted three times (90/30/30 min) with 5 mL each of ACN/water (50/50, v/v) on a GFL rotary shaker (type 3017, Burgwedel, Germany). After each extraction step, samples were clarified by centrifugation (10 min, 12,500 rpm, GS-15 centrifuge, Beckman Coulter, Indianapolis, IN, USA). Aliquots of the pooled supernatants were centrifuged and measured by HPLC-MS/MS.
Analysis of the feces and urine samples was performed on a 1290 Infinity series UHPLC system (Agilent Technologies, Waldbronn, Germany) coupled to a 6500 QTrap mass spectrometer equipped with an IonDrive TurboV source (Sciex, Foster City, CA, USA). Analyst software version 1.6.2 (Sciex, Foster City, CA, USA) was used for instrument control and data analysis. Chromatographic separation was carried out on a Kinetex Biphenyl column (150 mm × 3 mm, 2.6 µm, Phenomenex, Aschaffenburg, Germany). Eluent A consisted of water/acetic acid (99.9/0.1, v/v), eluent B was composed of ACN/acetic acid (99.9/0.1, v/v). […] At 14 min, 100% was reached which was held until 16.9 min. Afterwards, the column was re-equilibrated at 15% B for 3 min, resulting in a total run time of 20 min. The flow rate was 400 µL/min, the column temperature was 30 °C and the injection volume was 2 µL. Mass spectrometric detection was performed in negative electrospray ionization mode and selected reaction monitoring (SRM) was applied as scan type. The source settings were as follows: source temperature 400 °C, ion spray voltage −4500 V, curtain gas 35 psi (ca. 240 kPa), ion source gas 1 at 55 psi (ca. 379 kPa) and gas 2 at 65 psi (ca. 448 kPa), collision gas (nitrogen) high. […]

The conditions of data set [3]: oral dose, cited from earlier work; for Recovery in rats: rats (ZEN-14-Glc as ZEN equivalents).
The conditions of data set [4]: difference of hydrolyzed and untreated urine; cited from earlier work.
On the set-up of data set [5]: method as in PMID 27856298. To be noted: in vitro; cited from earlier work.
Data set [6] concerns human breast cancer cells (MCF7). Further details: method as in PMID 26792714. The settings on record: MCF7 including fetal bovine serum; cited from earlier work.
On the set-up of data set [7]: method as in PMID 2143610. To be noted: contaminated feed, one pig; cited from earlier work.
The subject of another data set is human estrogen receptor. Also noted: method as in PMID 16751557. To be noted: cited from earlier work.
Data set [8] has as its system intestinal bacteria from human fecal slurry. Also noted: method as in PMID 24386883. The settings on record: cited from earlier work.
Details of data set [9]: method as in earlier work. To be noted: humans, based on studies in pigs; cited from earlier work.
Another data set concerns piglets. Kind of data set: Observation of clinical symptoms in treated piglets. Type of data set: in vivo, pigs. To be noted: single orogastric bolus, 10 µg/kg b.w. ZEN or equimolar dose, four piglets. The procedure: For animal welfare considerations, amounts of administered toxins were chosen on the basis of no-observed-effect-levels of 10 µg/kg body weight per day for oral application in pigs. In short, four piglets received a single orogastric bolus of ZEN (10 µg/kg b.w.) and of its plant or fungal metabolites (at equimolar dose), respectively, using a repeated measures design.
as §1, with “Using polyvinyl chloride catheters (diameter 4.7 mm, Ch 14, mpö pfm GesmbH (Klagenfurt, Austria), length was adapted to the size of the esophagus of the piglets), volumes between 16 and 30 mL of the aqueous stock solutions were orally administered to the piglets, considering the piglets’ weight. After the toxin application, 10 mL of water was used to flush the catheter.” left out, “The general condition of the animals was observed daily during the experiment.” left out

The conditions of data set [10]: pigs, cited from earlier work.
Where [11] appears, read: after oral administration, piglets.
Where [12] appears, read: urine samples after oral administration, piglets.

“Also recorded” adds a separate entry of the source.

Take `CC1CCCC(O)CCCC=Cc2cc(OC3OC(CO)C(O)C(O)C3O)cc(O)c2C(=O)O1` (stereo not drawn) [α-ZEL-14-Glc]: in the data set with human Caco-2/TC7 cells, the “Amount detected in the basolateral compartment” value is recorded as “only traces”. Moreover, in the data set with human gut microbiota, the “Share hydrolyzed after incubation with human gut microbiota” value (“Share hydrolyzed after incubation” for short) is given as “over 97%”; the “Dose converted to unidentified metabolites / not recovered as identified metabolites” value was 40%; the “Dose detected as the aglycone (ZEN, α-ZEL or β-ZEL)” value (from here on “Dose detected as the aglycone”) was 60%.
`C[C@H]1CCC[C@@H](O)CCC/C=C/c2cc(O[C@@H]3O[C@H](CO)[C@@H](O)[C@H](O)[C@H]3O)cc(O)c2C(=O)O1` [β-ZEL-14-Glc]: in the data set on human gut microbiota, the “Share hydrolyzed after incubation” value is listed as “over 97%”; the “Dose converted to unidentified metabolites / not recovered as identified metabolites” value is 70%; the “Dose detected as the aglycone” value was 30%.
`C[C@H]1CCCC(=O)CCC/C=C/c2cc(OS(=O)(=O)O)cc(O)c2C(=O)O1` [ZEN-14-S, zearalenone-14-sulfate]: in data set [1], the “Hydrolysis upon incubation with human intestinal bacteria” value is reported as “completely hydrolyzed within 30 min”. Also, the “Estrogenic activity (effect on uterus weight)” value in the data set on uterus weight is recorded as “partially retained the estrogenic activities of ZEN”. For the same compound, the “Detection of the intact administered conjugate in urine and feces” value is given as “neither detected in urine nor in feces samples” in [2] (setting [11]) and “neither detected in urine nor in feces” in data set [2] (after oral administration, piglets, listed as ZEN-14-sulfate). Further, the “ZEN metabolites in feces” value in data set [2] (after oral application, piglets, listed as ZEN-14-sulfate) is recorded as “no ZEN metabolites were detected”. The “Hydrolysis in the gastrointestinal tract of pigs” value (from here on “Hydrolysis … of pigs”) in data set [2] is given as “rapidly hydrolyzed; also recorded: readily hydrolyzed to ZEN”; in data set [2] (listed as ZEN-14-sulfate) it was “completely hydrolyzed”. In addition, in data set [2] (second sampling period (24–48 h), piglets), the “Concentration of ZEN in urine” value is recorded as “Only traces”. Moreover, in data set [2] (setting [12]), the “Concentration of α-ZEL in urine” value was “traces”.
For `[13CH3][13C@H]1[13CH2][13CH2][13CH2][13C](=O)[13CH2][13CH2][13CH2]/[13CH]=[13CH]/[13c]2[13cH][13c](O)[13cH][13c](O)[13c]2[13C](=O)O1` [^13C-labeled ZEN], the Recovery in rats in data set [3] is 74%.
In the case of `C[C@H]1CCC[C@H](O)CCC/C=C/c2cc(O)cc(O)c2C(=O)O1` [α-ZEL, α-zearalenol], in data set [4], the “Glucuronidation in pig urine” value is recorded as 88% and the Glucuronidation in urine was 75%.
Consider `C[C@H]1CCCC(=O)CCC/C=C/c2cc(O[C@@H]3O[C@H](CO)[C@@H](O)[C@H](O)[C@H]3O)cc(O)c2C(=O)O1` [ZEN-14-Glc, zearalenone-14-O-β-glucoside], for which, in data set [5], the “Hydrolysis in bovine serum, plasma and whole blood” value is “in vitro hydrolysis of ZEN-14-Glc and release of ZEN”. Besides, the “Conversion by MCF7 cells” value in data set [6] is “convert ZEN-14-Glc to ZEN, α-ZEL and β-ZEL”. The “Metabolization during digestion in the pig” value in [7] was “completely metabolized to ZEN and α-ZEL”. For the same compound, the “Hydrolysis upon incubation with human intestinal bacteria” value in data set [1] was “completely hydrolyzed within 30 min”. Also, in the data set on human estrogen receptor, the “Interaction with the human estrogen receptor” value is reported as “interrupted”. Moreover, the Recovery in rats in data set [3] is 71%. The “Hydrolysis in the GI tract of rats” value in data set [3] (rats) was “partly hydrolyzed in the upper part of the GI tract”. Further, in the data set with human Caco-2/TC7 cells, the “Amount detected in the basolateral compartment” value is recorded as “only traces”. Moreover, the “Detection of the intact administered conjugate in urine and feces” value in data set [2] (setting [11]) was “none of the glucosides could be detected in urine or feces”. For the same compound, the “Detection of the intact administered conjugate in urine and feces” value in data set [2] (after oral administration, piglets, listed as ZEN-14-O-β-glucoside) is “neither detected in urine nor in feces”. Also, the “Hydrolysis … of pigs” value in data set [2] is listed as “readily hydrolyzed to ZEN”. Besides, the “Hydrolysis … of pigs” value in [2] (listed as ZEN-14-O-β-glucoside) is reported as “completely hydrolyzed”. In the data set on human gut microbiota, the “Share hydrolyzed after incubation” value is listed as “over 97%”; the “Dose converted to unidentified metabolites / not recovered as identified metabolites” value is recorded as 50%; the “Dose detected as the aglycone” value is 40%.
`C[C@H]1CCCC(=O)CCC/C=C/c2cc(O)cc(O[C@@H]3O[C@H](CO)[C@@H](O)[C@H](O)[C@H]3O)c2C(=O)O1` [ZEN-16-Glc, zearalenone-16-O-β-glucoside]: the “Residue in the fecal slurry” value in data set [8] (after two hours) is reported as “no residue”. The “Conversion by intestinal bacteria from human fecal slurry” value in data set [8] (within 30 min) is “nearly completely converted to ZEN within 30 min”. Also, the “Detection of the intact administered conjugate in urine and feces” value in data set [2] (setting [11]) is given as “none of the glucosides could be detected in urine or feces”; in [2] (after oral administration, piglets, listed as ZEN-16-O-β-glucoside), “neither detected in urine nor in feces”. Moreover, the figures for the “Hydrolysis … of pigs” value in data set [2] and in data set [2] (listed as ZEN-16-O-β-glucoside) were “readily hydrolyzed to ZEN” and “completely hydrolyzed”, respectively. Moreover, in data set [2] (setting [12]), the “Concentration of ZEN-14-GlcA in urine” value is “traces”.
Regarding `C[C@H]1CCCC(=O)CCC/C=C/c2cc(O)cc(O)c2C(=O)O1` [ZEN, zearalenone], the “Tolerable daily intake (TDI)” value in [9] was 0.25 µg/kg b.w. Besides, in data set [4], the “Glucuronidation in pig urine” value was 27% and the Glucuronidation in urine was 23%. In addition, in [2] (setting [11]), the “Detection of β-ZEL in urine and feces” value is reported as “neither be detected in urine nor in feces samples”. The “Clinical symptoms during and after treatment” value in the data set with piglets is “no clinical symptoms were observed”. Also, in [10] (24 h after application), the “Mean percentage of ingested ZEN excreted into urine” value was 28.4%. Also, in data set [10] (intravenous), the “Biological recovery of intravenously administered ZEN” value is 77% and the “Part eliminated via urine within 12 h” value is recorded as 44%. Further, the Terminal elimination half-life in data set [10] (intravenously administered) was 2.63 h. For the same compound, the “Biological recovery of orally administered radiolabeled ZEN” value in [10] (oral, after 48 h) was 67%. Besides, the “Radioactive ZEN excreted in bile that was reabsorbed into the systemic blood system” value in [10] is “about 85%”.
As for `C[C@H]1CCC[C@@H](O)CCC/C=C/c2cc(O)cc(O)c2C(=O)O1` [β-ZEL, β-zearalenol], in [4], the “Glucuronidation in pig urine” value was 94% and the Glucuronidation in urine is reported as 56%.

These data come from article PMC5331435, “Metabolism of Zearalenone and Its Major Modified Forms in Pigs” (Toxins, 2017).
